From patent publication US5935790A, “Method for detecting a predisposition to susceptibility to toxic effects of drugs and poisons” (Rutgers, The State University of New Jersey, priority 1997, dated 1999)
Like-named read-outs stand apart in the source and are kept apart here.

How the values were obtained:
rat fibroblasts = settings: lead nitrate in the growth medium; cited from earlier work
β-hexosaminidase = settings: every concentration of metal studied
Procedure: (§1) The direct effect of lead on ASA activity was also studied. […] Human fibroblast ASA was enriched in a preparation of isolated lysosomal enzymes as described by Gorman and Poretz [J. Cell. Physiol. 131:158-164 (1987)]. Lead acetate in buffer was added to protein preparations containing approximately 2 units of ASA activity in a total volume of 2.0 ml and incubated at 4° C. A control lacking lead was also prepared in an identical fashion. Aliquots were removed at 30 min, 1 hr, 24 hr, and 48 hr and analyzed for ASA, β-galactosidase and β-hexosaminidaseactivities. Enzymic and protein analyses were performed in triplicate, and the complete experiment was repeated three times.

β-galactosidase = settings: similar conditions as for ASA
Procedure: as §1

arylsulfatase A (ASA) = arylsulfatase A (ASA) (Homo sapiens, UniProt P15289); settings: fibroblasts
Procedure: FIG. 2. The effect of lead acetate on intracellular ASA enzymic activity in cultured human fibroblasts. Fibroblasts were grown in vitro as monolayer cultures in the absence or presence of different concentrations of lead acetate as described in the text. The cells were dissolved in buffer containing detergent and the enzymic activity of ASA and other lysosomal enzymes and protein concentration were determined. The data are expressed relative to the control and the s.e.m. at each concentration of lead is indicated.
The potential effect of lead on cellular levels of ASA was examined in an in vitro system employing human fibroblasts. […] Fibroblast cultures were derived from punch biopsies and maintained in glutamine/penicillin/streptomycin/fetal bovine serum supplemented EMEM or in the same supplemented medium containing 0.5. 5.0. or 20 μM lead acetate. These cultures were split every three cell cycles for a total of 6-12 cell divisions. Fibroblasts in logarithmic growth were washed with PBS and dissolved in 1 mL of PBS containing 0.1% Triton X-100. This suspension was centriftiged for 5 min at 12,000 ×g and the supernatant was employed for determination of ASA and arylsulfatase B (ASB) activities using p-nitrocatechol sulfate as described by Baum et al. [Clin. Chim. Acta 4:453-455 (1959)] and β-galactosidase [Poretz et al., supra]. Each assay was performed in triplicate, and the complete experiment was repeated three times on different occasions for evaluating the effect of lead on cellular levels of ASA.

isolated lysosomes = settings: cited from earlier work
partially purified ASA = partially purified ASA (Homo sapiens, UniProt P15289)
Procedure: FIG. 3. […] A preparation of partially purified human fibroblast ASA containing other lysosomal hydrolases was incubated for 1 hr at 4° C. in the presence of lead acetate as described in the text. ASA and other hydrolase enzymic activities were determined. The data are expressed relative to the control and the s.e.m at each concentration of lead is indicated.
as §1

ASA = settings: daily i.p. 100 mg/kg body weight, cited from earlier work

Chain of arylsulfatase A (ASA) (P15289 19-507): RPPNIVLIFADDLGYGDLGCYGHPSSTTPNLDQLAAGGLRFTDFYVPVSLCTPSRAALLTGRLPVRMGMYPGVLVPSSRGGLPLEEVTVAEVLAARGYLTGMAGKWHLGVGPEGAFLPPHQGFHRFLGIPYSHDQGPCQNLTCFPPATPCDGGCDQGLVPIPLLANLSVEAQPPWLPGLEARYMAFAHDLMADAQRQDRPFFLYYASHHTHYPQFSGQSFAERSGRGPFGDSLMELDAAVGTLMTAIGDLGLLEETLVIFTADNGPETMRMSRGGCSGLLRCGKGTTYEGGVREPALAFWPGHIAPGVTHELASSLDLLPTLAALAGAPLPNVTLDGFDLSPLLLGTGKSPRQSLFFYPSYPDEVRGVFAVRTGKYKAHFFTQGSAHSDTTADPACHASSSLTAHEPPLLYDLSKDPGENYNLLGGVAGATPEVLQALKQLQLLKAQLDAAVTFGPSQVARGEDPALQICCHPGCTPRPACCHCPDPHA
Chain of partially purified ASA (P15289 19-507): as above

Row | SMILES | lysosomal membrane stability (rat fibroblasts) | effect on β-hexosaminidase activity (β-hexosaminidase) | effect on β-galactosidase activity (β-galactosidase) | amount of ASA relative to control cells grown without lead (arylsulfatase A (ASA)) | reduction of cellular ASA activity (arylsulfatase A (ASA)) | reduction of cellular ASA specific activity (arylsulfatase A (ASA); 0.5 µM) | decrease of ASA lysosomal enzyme activity vs cells in normal medium (arylsulfatase A (ASA); 20 µM) | decrease in stability of the lysosome (isolated lysosomes) | facilitated calcium transport by isolated lysosomes (isolated lysosomes; lead as low as 300 μM, concentration dependent) | loss of ASA activity (partially purified ASA; 200 μM lead acetate, 4° C., p=0.045) | time of maximum effect on ASA activity (partially purified ASA; 4° C., unchanged up to 48 hr) | effect on partially purified ASA (partially purified ASA; 100-200 μM lead acetate) | reduction in ASA activity vs control animals (ASA; rat kidney) | reduction in ASA activity vs control animals (ASA; rat liver)
1 | O=[N+]([O-])[O-].O=[N+]([O-])[O-].[Pb+2] [lead nitrate] | reduction in lysosomal membrane stability |  |  |  |  |  |  |  |  |  |  |  |  | 
2 | CC(=O)[O-].CC(=O)[O-].[Pb+2] [lead acetate] |  | closely paralleled that for ASA activity | no reduction | ≥ 65% | 32-36% | 14% | 32-36% | greater than 200 fold | markedly increased | 67% | 1 h | precipitation of the enzyme and loss of enzymic activity | 20% | 55%
